Measurements published in patent publication US9376420B2 (YUHAN CORPORATION, priority 2012, dated 2016).

Target: T1, human LXRβ (Homo sapiens, UniProt P55055)
T1 construct: expressed in transfected cells; host or cells: HEK293 cells (ATCC CRL-1573), transient transfection with pFA-hLXRβ/GAL4 and pUAS
T1 sequence (P55055 222-460 limits assumed): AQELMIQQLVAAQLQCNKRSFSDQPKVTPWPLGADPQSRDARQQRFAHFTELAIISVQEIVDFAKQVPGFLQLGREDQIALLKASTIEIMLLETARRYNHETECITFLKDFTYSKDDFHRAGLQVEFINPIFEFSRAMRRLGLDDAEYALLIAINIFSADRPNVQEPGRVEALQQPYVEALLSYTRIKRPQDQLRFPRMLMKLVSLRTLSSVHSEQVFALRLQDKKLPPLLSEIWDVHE
Assay: Assay for Transcriptional Activity of LXRβ (GAL4-hLXRβ LBD luciferase reporter, transient transfection)
Type: cell-based
Details: HEK293 cells transfected with pFA-hLXRβ/GAL4 and pUAS, 24 hours; for Emax: fold value in comparison with the control (DMSO-treated group); for EC50: increase of transcriptional activity of LXRβ, average of three independent tests
Procedure, shortened: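 HEK293 cells transiently co-transfected with GAL4-hLXRβ LBD and 5×GAL4-UAS luciferase reporter, treated 24 h at 37 °C with compounds over 9 points (0.01–50 μM, half-log). Luminescence read after lysis; EC50 from four-parameter fit, mean of three independent tests, with a known LXR agonist as positive control.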

SMILES	Emax	EC50
CS(=O)(=O)c1cccc(-c2ccc(C3CC(C(F)(F)C(F)(F)F)=NN3c3ccc(F)cc3F)cc2)c1 (centres unmarked) [Example 18, 1-(2,4-difluoro-phenyl)-5-(3′-methanesulfonyl-biphenyl-4-yl)-3-pentafluoroethyl-4,5-dihydro-1H-pyrazole]	103 fold	692 nM
CC(=O)c1ccccc1-c1ccc(C2CC(C(O)(C(F)(F)F)C(F)(F)F)=NN2c2ccccc2Cl)cc1 (centres unmarked) [Example 241, 5-(2′-acetyl-biphenyl-4-yl)-1-(2-chloro-phenyl)-3-[di-(trifluoromethyl)-hydroxy-methyl]-4,5-dihydro-1H-pyrazole]	47 fold	3350 nM
O=C(Cc1ccccc1)N1CC=C(c2cccc(C3CC(C(O)(C(F)(F)F)C(F)(F)F)=NN3c3ccccc3Cl)c2)CC1 (centres unmarked) [Example 236, 1-(2-chloro-phenyl)-5-[3-(1-phenylacetyl-1,2,3,6-tetrahydropyridin-4-yl)-phenyl]-3-[di-(trifluoromethyl)-hydroxy-methyl]-4,5-dihydro-1H-pyrazole]	71 fold	49 nM
COc1ncc(-c2ccc(C3CC(C(O)(C(F)(F)F)C(F)(F)F)=NN3c3ccc(F)cc3F)cc2)cc1C=O (centres unmarked) [Example 379, 1-(2,4-difluoro-phenyl)-5-[4-(5-formyl-6-methoxy-pyridin-3-yl)-phenyl)-3-[di-(trifluoromethyl)-hydroxy-methyl]-4,5-dihydro-1H-pyrazole]	35 fold	745 nM
Oc1cccc(-c2cccc(C3CC(C(F)(F)C(F)(F)F)=NN3c3ccccc3Cl)c2)c1 (centres unmarked) [Example 111, 1-(2-chloro-phenyl)-5-(3′-hydroxy-biphenyl-3-yl)-3-pentafluoroethyl-4,5-dihydro-1H-pyrazole]	41 fold	4150 nM
C[S+]([O-])c1ccc(-c2cccc(C3CC(C(F)(F)C(F)(F)F)=NN3c3ccc(F)cc3F)c2)cc1 (centres unmarked) [Example 52, 1-(2,4-difluoro-phenyl)-5-(4′-methanesulfinyl-biphenyl-3-yl)-3-pentafluoroethyl-4,5-dihydro-1H-pyrazole]	56 fold	546 nM
CS(=O)(=O)c1ccc(-c2ccc(C3CC(C(O)(C(F)(F)F)C(F)(F)F)=NN3c3ccccc3Cl)cc2)cc1C#N (centres unmarked) [Example 290, 1-(2-chloro-phenyl)-5-[3′-cyano-4′-(methylsulfonyl)-biphenyl-4-yl]-3-[di-(trifluoromethyl)-hydroxy-methyl]-4,5-dihydro-1H-pyrazole]	29 fold	161 nM
CS(=O)(=O)Nc1cccc(-c2ccc(C3CC(C(O)(C(F)(F)F)C(F)(F)F)=NN3c3ccccc3Cl)cc2)c1 (centres unmarked) [Example 310, 5-(3′-methanesulfonyl-aminobiphenyl-4-yl)-1-(2-chloro-phenyl)-3-[di-(trifluoromethyl)-hydroxy-methyl]-4,5-dihydro-1H-pyrazole]	78 fold	1150 nM
CS(=O)(=O)c1cccc(-c2cncc(C3CC(C(F)(F)C(F)(F)F)=NN3c3ccc(F)cc3F)c2)c1 (centres unmarked) [Example 165, 1-(2,4-difluoro-phenyl)-5-[3-(3-methanesulfonyl-phenyl)-pyridin-5-yl]-3-pentafluoroethyl-4,5-dihydro-1H-pyrazole]	157 fold	225 nM
CS(=O)(=O)c1ccc(-c2ccc(C3CC(C(O)(C(F)(F)F)C(F)(F)F)=NN3c3ccccc3Cl)cc2F)cc1 (centres unmarked) [Example 365, 1-(2-chloro-phenyl)-5-(2-fluoro-4′-methylsulfonyl-biphenyl-4-yl)-3-[di-(trifluoromethyl)-hydroxy-methyl]-4,5-dihydro-1H-pyrazole]	68 fold	283 nM

More lines, in order of falling EC50, values ahead:

Emax	EC50	SMILES
66 fold	8570 nM	CSc1ccc(-c2cccc(C3CC(C(F)(F)C(F)(F)F)=NN3c3ccc(F)cc3F)c2)cc1 (centres unmarked) [Example 30, 1-(2,4-difluoro-phenyl)-5-(4′-methylsulfanyl-biphenyl-3-yl)-3-pentafluoroethyl-4,5-dihydro-1H-pyrazole]
57 fold	7180 nM	CSc1ccc(-c2cccc(C3CC(C(F)(F)C(F)(F)F)=NN3c3ccc(F)cc3F)c2)cn1 (centres unmarked) [Example 77, 1-(2,4-difluoro-phenyl)-5-[3-(2-methylsulfanyl-pyridin-5-yl)-phenyl]-3-pentafluoroethyl-4,5-dihydro-1H-pyrazole]
57 fold	2430 nM	COc1cccc(OC)c1-c1ccc(C2CC(C(O)(C(F)(F)F)C(F)(F)F)=NN2c2ccccc2Cl)cc1 (centres unmarked) [Example 245, 1-(2-chloro-phenyl)-5-(2′,6′-dimethoxy-biphenyl-4-yl)-3-[di-(trifluoromethyl)-hydroxy-methyl]-4,5-dihydro-1H-pyrazole]
39 fold	2030 nM	O=S1(=O)CCN(c2ccc(C3CC(C(O)(C(F)(F)F)C(F)(F)F)=NN3c3ccccc3Cl)cc2)CC1 (centres unmarked) [Example 329, 1-(2-chloro-phenyl)-5-[4-(1,1-dioxo-thiomorpholin-4-yl)-phenyl]-3-[di-(trifluoromethyl)-hydroxy-methyl]-4,5-dihydro-1H-pyrazole]
58 fold	731 nM	CN(C)S(=O)(=O)N1CCN(c2ccc(C3CC(C(O)(C(F)(F)F)C(F)(F)F)=NN3c3ccc(F)cc3F)cc2)CC1 (centres unmarked) [Example 407, 1-(2,4-difluoro-phenyl)-5-[4-(4-dimethylsulfamoyl-piperazin-1-yl)-phenyl]-3-[di-(trifluoromethyl)-hydroxy-methyl]-4,5-dihydro-1H-pyrazole]
36 fold	632 nM	CS(=O)(=O)c1cccc(-c2ccc(C3CC(C(O)(C(F)(F)F)C(F)(F)F)=NN3c3ccccc3Cl)cc2)n1 (centres unmarked) [Example 286, 1-(2-chloro-phenyl)-5-{4-[6-(methylsulfonyl)-pyridin-2-yl]-phenyl}-3-[di-(trifluoromethyl)-hydroxy-methyl]-4,5-dihydro-1H-pyrazole]
81 fold	617 nM	COc1ccc(-c2ccc(C3CC(C(O)(C(F)(F)F)C(F)(F)F)=NN3c3ccccc3Cl)c(F)c2)cn1 (centres unmarked) [Example 343, 1-(2-chloro-phenyl)-5-[2-fluoro-4-(6-methoxy-pyridin-3-yl)-phenyl]-3-[di-(trifluoromethyl)-hydroxy-methyl]-4,5-dihydro-1H-pyrazole]
72 fold	580 nM	CC(=O)c1ccc(-c2ccc(C3CC(C(O)(C(F)(F)F)C(F)(F)F)=NN3c3ccccc3Cl)cc2F)cc1 (centres unmarked) [Example 362, 5-(4′-acetyl-2-fluoro-biphenyl-4-yl)-1-(2-chloro-phenyl)-3-[di-(trifluoromethyl)-hydroxy-methyl]-4,5-dihydro-1H-pyrazole]
88 fold	452 nM	OC(C1=NN(c2ccccc2Cl)C(c2ccc(-c3ccc(F)nc3)cc2)C1)(C(F)(F)F)C(F)(F)F (centres unmarked) [Example 268, 1-(2-chloro-phenyl)-5-[4-(6-fluoro-pyridin-3-yl)-phenyl]-3-[di-(trifluoromethyl)-hydroxy-methyl]-4,5-dihydro-1H-pyrazole]
107 fold	304 nM	CS(=O)(=O)c1cccc(-c2cc(C3CC(C(F)(F)C(F)(F)F)=NN3c3ccc(F)cc3F)ccn2)c1 (centres unmarked) [Example 188, 1-(2,4-difluoro-phenyl)-5-[2-(3-methanesulfonyl-phenyl)-pyridin-4-yl]-3-pentafluoroethyl-4,5-dihydro-1H-pyrazole]
84 fold	189 nM	CS(=O)(=O)c1cc(-c2cccc(C3CC(C(F)(F)C(F)(F)F)=NN3c3ccc(F)cc3F)c2)cc(F)c1CO (centres unmarked) [Example 76, 1-(2,4-difluoro-phenyl)-5-[3′-fluoro-4′-(hydroxymethyl)-5′-(methylsulfonyl)-biphenyl-3-yl]-3-pentafluoroethyl-4,5-dihydro-1H-pyrazole]
83 fold	145 nM	CN(C)S(=O)(=O)c1ccc(-c2ccc(C3CC(C(O)(C(F)(F)F)C(F)(F)F)=NN3c3ccc(F)cc3F)cc2)cc1 (centres unmarked) [Example 396, 1-(2,4-difluoro-phenyl)-5-(4′-dimethylsulfamoyl-biphenyl-4-yl)-3-(di-(trifluoromethyl)-hydroxy-methyl)-4,5-dihydro-1H-pyrazole]
81 fold	119 nM	O=C(c1ccc(Cl)cc1)N1CC=C(c2cccc(C3CC(C(O)(C(F)(F)F)C(F)(F)F)=NN3c3ccccc3Cl)c2)CC1 (centres unmarked) [Example 237, 5-{3-[1-(4-chloro-benzoyl)-1,2,3,6-tetrahydropyridin-4-yl]-phenyl}-1-(2-chloro-phenyl)-3-[di-(trifluoromethyl)-hydroxy-methyl]-4,5-dihydro-1H-pyrazole]
73 fold	62 nM	CN(CCCS(=O)(=O)c1cccc(-c2ccc(C3CC(C(O)(C(F)(F)F)C(F)(F)F)=NN3c3ccccc3Cl)cc2)c1)C(=O)OC(C)(C)C (centres unmarked) [Example 285, 5-{3′-[3-(N-BOC-N-methyl-amino)-propane-1-sulfonyl]-biphenyl-4-yl}-1-(2-chloro-phenyl)-3-[di-(trifluoromethyl)-hydroxy-methyl]-4,5-dihydro-1H-pyrazole]
27 fold	47 nM	CS(=O)(=O)c1ccc(-c2ccc(C3CC(C(O)(C(F)(F)F)C(F)(F)F)=NN3c3ccc(F)cc3F)cc2)cc1F (centres unmarked) [Example 387, 1-(2,4-difluoro-phenyl)-5-(3′-fluoro-4′-methanesulfonyl-biphenyl-4-yl)-3-[di-(trifluoromethyl)-hydroxy-methyl]-4,5-dihydro-1H-pyrazole]
